Assay results reported in ChEMBL document CHEMBL1151661, “Inhibitory effect of tannins on reverse transcriptase from RNA tumor virus” (J Nat Prod, 1985).
Calls of active or inactive are those of the source. The calls are words filed in the database; no cut-off is given here.

How the values were obtained:
[1] = system: Avian myeloblastosis virus; assay: Inhibition of AMV reverse transcriptase activity assessed as incorporation of dTMP in poly(rA)-oligo(dT) at 10 uM; design: scale not given: the % may be the effect or the level left
[2] = system: Avian myeloblastosis virus; assay: Inhibition of AMV reverse transcriptase activity assessed as incorporation of dGMP in poly(rC)-oligo(dG) at 1 uM; design: scale not given: the % may be the effect or the level left
[3] = system: Avian myeloblastosis virus; assay: Inhibition of AMV reverse transcriptase activity assessed as incorporation of dTMP in poly(rA)-oligo(dT) at 1000 uM; design: scale not given: the % may be the effect or the level left
[4] = system: Avian myeloblastosis virus; assay: Inhibition of AMV reverse transcriptase activity assessed as incorporation of dGMP in poly(rC)-oligo(dG) at 1000 uM; design: scale not given: the % may be the effect or the level left
[5] = system: Avian myeloblastosis virus; assay: Inhibition of AMV reverse transcriptase activity assessed as incorporation of dGMP in poly(rC)-oligo(dG) at 10 uM; design: scale not given: the % may be the effect or the level left
[6] = system: Avian myeloblastosis virus; assay: Inhibition of AMV reverse transcriptase activity assessed as incorporation of dTMP in poly(rA)-oligo(dT) at 100 uM; design: scale not given: the % may be the effect or the level left
[7] = system: Avian myeloblastosis virus; assay: Inhibition of AMV reverse transcriptase activity assessed as incorporation of dTMP in poly(rA)-oligo(dT) at 1 uM; design: scale not given: the % may be the effect or the level left
[8] = system: Avian myeloblastosis virus; assay: Inhibition of AMV reverse transcriptase activity assessed as incorporation of dGMP in poly(rC)-oligo(dG) at 100 uM; design: scale not given: the % may be the effect or the level left
[9] = system: Avian myeloblastosis virus; assay: Inhibition of AMV reverse transcriptase activity assessed as incorporation of dGMP in poly(rC)-oligo(dG) at 0.1 uM; design: scale not given: the % may be the effect or the level left
[10] = system: Avian myeloblastosis virus; assay: Inhibition of AMV reverse transcriptase activity assessed as incorporation of dTMP in poly(rA)-oligo(dT) at 0.1 uM; design: scale not given: the % may be the effect or the level left
Bos taurus [11] = organism: Bos taurus; assay: Inhibition of calf thymus DNA polymerase-alpha activity using activated calf thymus DNA at 1000 uM
[12] = system: Avian myeloblastosis virus; assay: Inhibition of AMV reverse transcriptase activity assessed as DNA synthesis treated at 100 uM after 5 mins of initiation of DNA synthesis
Bos taurus [13] = organism: Bos taurus; assay: Inhibition of calf thymus DNA polymerase-alpha activity using activated calf thymus DNA at 10 uM

| SMILES | Activity [1] | Activity [2] | Activity [3] | Activity [4] | Activity [5] | Activity [6] | Activity [7] | Activity [8] | Activity [9] | Activity [10] | Activity (Bos taurus [11]) | Activity [12] | Activity (Bos taurus [13]) |
| --- | --- | --- | --- | --- | --- | --- | --- | --- | --- | --- | --- | --- | --- |
| O=C1OC[C@H]2OC(O)[C@@H]3OC(=O)c4cc(O)c(O)c(O)c4-c4c(cc(O)c(O)c4O)C(=O)O[C@H]3[C@@H]2OC(=O)c2cc(O)c(O)c(O)c2-c2c1cc(O)c(O)c2O (stereo partly drawn) | 15% | 73% | 4% | 10% | 41% | 17% | 51% | 7% | 80% | 88% |  |  |  |
| O=C1O[C@H]2[C@@H]3OC(=O)c4cc(O)c(O)c(O)c4-c4c(cc(O)c(O)c4O)C(=O)OC[C@H]2O[C@@H](OC(=O)c2cc(O)c(O)c(O)c2)[C@@H]3OC(=O)c2cc(O)c(O)c3c2[C@@H]2C1=CC(=O)[C@](O)(O3)C2(O)O | 12% | 93% | 6% | 12% | 62% | 6% | 39% | 15% | 103% | 89% | Active | Active | inactive |
| O=C(O[C@@H]1O[C@@H]2COC(=O)c3cc(O)c(O)c(O)c3-c3c(cc(O)c(O)c3O)C(=O)O[C@H]([C@H]1O)[C@@H]2O)c1cc(O)c(O)c(O)c1 | 88% | 72% | 3% | 0% | 64% | 25% | 92% | 30% | 92% | 88% |  |  |  |
| O=C[C@H](OC(=O)c1cc(O)c(O)c(O)c1)[C@@H](OC(=O)c1cc(O)c(O)c(O)c1)[C@@H]1OC(=O)c2cc(O)c(O)c(O)c2-c2c(cc(Oc3c(C(=O)O[C@@H](C=O)[C@@H](OC(=O)c4cc(O)c(O)c(O)c4)[C@@H]4OC(=O)c5cc(O)c(O)c(O)c5-c5c(cc(O)c(O)c5O)C(=O)OC[C@H]4O)cc(O)c(O)c3O)c(O)c2O)C(=O)OC[C@H]1O | 4% | 76% | 6% | 15% | 22% | 6% | 19% | 10% | 105% | 82% |  |  |  |
| O=c1oc2c(O)c(O)cc3c(=O)oc4c(O)c(O)cc1c4c23 | 45% | 80% | 0% | 3% | 49% | 18% | 77% | 20% | 71% | 93% |  |  |  |
| O=C(O[C@@H]1O[C@@H]2COC(=O)c3cc(O)c(O)c(O)c3-c3c(cc(O)c(O)c3O)C(=O)O[C@H]2[C@H](OC(=O)c2cc(O)c(O)c(O)c2)[C@H]1OC(=O)c1cc(O)c(O)c(O)c1)c1cc(O)c(O)c(Oc2c(C(=O)O[C@H]3O[C@@H]4COC(=O)c5cc(O)c(O)c(O)c5-c5c(cc(O)c(O)c5O)C(=O)O[C@H]4[C@H](OC(=O)c4cc(O)c(O)c(O)c4)[C@H]3OC(=O)c3cc(O)c(O)c(O)c3)cc(O)c(O)c2O)c1 | 11% | 68% | 1% | 1% | 13% | 4% | 25% | 8% | 102% | 73% |  |  |  |
| O=C(O)C[C@@H]1C(=O)O[C@H]2[C@@H]3OC(=O)c4cc(O)c(O)c(O)c4-c4c(cc(O)c(O)c4O)C(=O)OC[C@H]2O[C@@H](OC(=O)c2cc(O)c(O)c(O)c2)[C@@H]3OC(=O)c2cc(O)c(O)c3c2[C@H]1[C@H](O)C(=O)O3 | 48% | 67% | 6% | 8% | 74% | 31% | 90% | 68% | 94% | 106% |  |  |  |
| O=C(O)C[C@H]1C(=O)O[C@H]2[C@H](OC(=O)c3cc(O)c(O)c(O)c3)[C@@H](OC(=O)c3cc(O)c(O)c4c3[C@H]1[C@H](O)C(=O)O4)[C@H](OC(=O)c1cc(O)c(O)c(O)c1)O[C@@H]2COC(=O)c1cc(O)c(O)c(O)c1 | 22% | 67% | 8% | 1% | 46% | 24% | 71% | 27% | 75% | 109% |  |  |  |
| O=C(O[C@H]1O[C@@H]2COC(=O)c3cc(O)c(O)c(O)c3-c3c(cc(O)c(O)c3O)C(=O)O[C@H]2[C@@H]2OC(=O)c3cc(O)c(O)c(O)c3-c3c(cc(O)c(O)c3O)C(=O)O[C@@H]12)c1cc(O)c(O)c(Oc2c(C(=O)O[C@H]3O[C@@H]4COC(=O)c5cc(O)c(O)c(O)c5-c5c(cc(O)c(O)c5O)C(=O)O[C@H]4[C@@H]4OC(=O)c5cc(O)c(O)c(O)c5-c5c(cc(O)c(O)c5O)C(=O)O[C@@H]34)cc(O)c(O)c2O)c1 | 20% | 68% | 2% | 6% | 7% | 19% | 27% | 5% | 80% | 86% |  |  |  |
| O=C1OC[C@H]2O[C@@H](O)[C@H](O)[C@@H](O)[C@@H]2OC(=O)c2cc(O)c(O)c(O)c2-c2c(O)c(O)c3oc(=O)c4c(c(O)c(O)c5oc(=O)c2c3c54)-c2c1cc(O)c(O)c2O | 35% | 109% | 1% | 6% | 64% | 8% | 62% | 31% | 105% | 119% |  |  |  |
| O=C(O[C@@H]1O[C@@H]2COC(=O)c3cc(Oc4c(C(=O)O[C@@H]5O[C@@H]6COC(=O)c7cc(O)c(O)c(O)c7-c7c(cc(O)c(O)c7O)C(=O)O[C@H]6[C@H](OC(=O)c6cc(O)c(O)c(O)c6)[C@H]5OC(=O)c5cc(O)c(O)c(O)c5)cc(O)c(O)c4O)c(O)c(O)c3-c3c(cc(O)c(O)c3O)C(=O)O[C@H]2[C@H](OC(=O)c2cc(O)c(O)c(O)c2)[C@H]1OC(=O)c1cc(O)c(O)c(O)c1)c1cc(O)c(O)c(O)c1 | 7% | 54% | 6% | 2% | 12% | 5% | 16% | 12% | 111% | 55% |  |  |  |
| O=C(O)c1cc(O)c(O)c(O)c1 | 75% | 103% | 78% | 98% | 99% | 75% | 93% | 91% | 122% | 84% |  |  |  |
| COc1cc2c[n+](C)c3c4cc5c(cc4ccc3c2cc1OC)OCO5 | 11% | 85% | 1% | 2% | 88% | 1% | 102% | 5% | 116% | 85% |  |  |  |
| O=C[C@@H]1OC(=O)c2c3c(O)c(O)c(O)c2-c2c(cc(O)c(O)c2O)C(=O)O[C@H]1[C@@H]1OC(=O)c2c(c(O)c(O)c(O)c2-c2c(cc(O)c(O)c2O)C(=O)O[C@H]1COC(=O)c1cc(O)c(O)c(O)c1)O[C@H]1[C@@H]2OC(=O)c4cc(O)c(O)c(O)c4-c4c(cc(O)c(O)c4O)C(=O)O[C@H]2[C@H](OC(=O)c2cc(O)c(O)c(O)c2)O[C@@H]1CO3 | 4% | 73% | 3% | 20% | 22% | 5% | 24% | 14% | 106% | 66% |  |  |  |
| O=C(OC[C@H]1O[C@@H](OC(=O)c2cc(O)c(O)c(O)c2)[C@H](OC(=O)c2cc(O)c(O)c(O)c2)[C@@H](OC(=O)c2cc(O)c(O)c(O)c2)[C@@H]1OC(=O)c1cc(O)c(O)c(O)c1)c1cc(O)c(O)c(O)c1 | 30% | 62% | 7% | 15% | 44% | 25% | 39% | 27% | 80% | 67% |  |  |  |
| O=C1O[C@@H]2[C@@H](OC(=O)c3cc(O)c(O)c(O)c3-c3c1cc(O)c(O)c3O)[C@H](O)O[C@@H]1COC(=O)c3cc(O)c(O)c(O)c3-c3c(O)c(O)c4oc(=O)c5c(c(O)c(O)c6oc(=O)c3c4c65)-c3c(cc(O)c(O)c3O)C(=O)O[C@@H]21 | 19% | 76% | 2% | 4% | 18% | 11% | 22% | 9% | 85% | 85% |  |  |  |
| Oc1cc(O)c2c(c1)O[C@H](c1ccc(O)c(O)c1)[C@H](O)[C@H]2c1c(O)cc(O)c2c1O[C@H](c1ccc(O)c(O)c1)[C@H](O)C2 | 97% | 93% | 55% | 9% | 80% | 98% | 116% | 64% | 85% | 102% |  |  |  |
